# Assay results published in patent US20230085307A1, “PYRIDAZINONE COMPOUND AND HERBICIDE” (NISSAN CHEMICAL CORPORATION, priority 2019, published 2023).
# Experiments:
# velvetleaf = experiment: Test Example 5: herbicidal effect by foliage application, plastic box (Table 20, symbol M); type: in vivo, velvetleaf (Abutilon theophrasti)
# Procedure, shortened: (§1)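 Plants were sown into sterilized diluvial soil under about 1.5 cm cover and kept in a greenhouse at 25° C. to 30° C. Fourteen days on, foliage received an even spray of the diluted emulsion. Herbicidal or crop effect was judged three weeks afterwards.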
# wild oat = experiment: Test Example 5: herbicidal effect by foliage application, plastic box (Table 20, symbol I); type: in vivo, wild oat (Avena fatua)
# Procedure, shortened: as §1
# windgrass = experiment: Test Example 5: herbicidal effect by foliage application, plastic box (Table 20, symbol L); type: in vivo, windgrass (Apera spica-venti)
# Procedure, shortened: as §1
# chickweed = experiment: Test Example 5: herbicidal effect by foliage application, plastic box (Table 20, symbol P); type: in vivo, common chickweed (Stellaria media)
# Procedure, shortened: as §1
# persian speedwell = experiment: Test Example 5: herbicidal effect by foliage application, plastic box (Table 20, symbol R); type: in vivo, Persian speedwell (Veronica persica)
# From the text: (§2) [Test Example 5] Herbicidal Effect Test by Foliage Application
# (§3) Sterilized diluvial soil was placed in a plastic box having a length of 21 cm, a width of 13 cm, and a depth of 7 cm. The seeds of each of southern crabgrass, green foxtail, barnyard grass, wild oat, blackgrass, Italian ryegrass, windgrass, velvetleaf, redroot pigweed, lambsquarters, chickweed, false cleavers, persian speedwell, corn, soybean, rice, wheat, beet, and rapeseed were sowed in a spot-like manner and covered with the soil having a thickness of about 1.5 cm. Thereafter, the plants were grown in a greenhouse at 25° C. to 30° C. After 14-day growth of the plants, the emulsion agent of the compound of the present invention prepared according to Formulation Example 2 was diluted with water so as to achieve a predetermined herbicide amount, and the diluted emulsion agent was uniformly applied to a foliage part with a small-sized spray. Three weeks after the herbicide application, the effect of the herbicide on each plant was evaluated according to the criteria of Test Example 1.
# barnyard grass [1] = experiment: Test Example 5: herbicidal effect by foliage application, plastic box (Table 20, symbol H); type: in vivo, barnyard grass (Echinochloa crus-galli)
# Procedure, shortened: as §1
# redroot pigweed = experiment: Test Example 5: herbicidal effect by foliage application, plastic box (Table 20, symbol N); type: in vivo, redroot pigweed (Amaranthus retroflexus)
# From the text: as §2, §3
# blackgrass = experiment: Test Example 5: herbicidal effect by foliage application, plastic box (Table 20, symbol J); type: in vivo, blackgrass (Alopecurus myosuroides); settings: foliage application
# Procedure, shortened: as §1
# green foxtail = experiment: Test Example 5: herbicidal effect by foliage application, plastic box (Table 20, symbol G); type: in vivo, green foxtail (Setaria viridis)
# Procedure, shortened: as §1
# lambsquarters = experiment: Test Example 5: herbicidal effect by foliage application, plastic box (Table 20, symbol O); type: in vivo, lambsquarters (Chenopodium album)
# Procedure, shortened: as §1
# southern crabgrass = experiment: Test Example 5: herbicidal effect by foliage application, plastic box (Table 20, symbol F); type: in vivo, southern crabgrass (Digitaria ciliaris)
# Procedure, shortened: as §1
# Italian ryegrass = experiment: Test Example 5: herbicidal effect by foliage application, plastic box (Table 20, symbol K); type: in vivo, Italian ryegrass (Lolium multiflorum)
# Procedure, shortened: as §1
# rice flat sedge = experiment: Test Example 3: herbicidal effect by foliage application, Wagner pot (Table 18, symbol E); type: in vivo, rice flat sedge (Cyperus iria)
# Procedure, shortened: (§4)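 Plants were sown in alluvial soil held under 0.1–0.5 cm standing water and grown 14 days in a greenhouse at 25–30 °C. An emulsifiable formulation, water-diluted to the set dose, was then sprayed onto the foliage, and effects were scored three weeks later using previously defined criteria.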
# barnyard grass [2] = experiment: Test Example 3: herbicidal effect by foliage application, Wagner pot (Table 18, symbol H); type: in vivo, barnyard grass (Echinochloa crus-galli)
# Procedure, shortened: as §4
# Chinese sprangletop = experiment: Test Example 3: herbicidal effect by foliage application, Wagner pot (Table 18, symbol D); type: in vivo, chinese sprangletop (Leptochloa chinensis)
# Procedure, shortened: as §4
# [3] = foliage application, 320 g/ha, three weeks after application
# [4] = foliage application, AAH 320 g/ha, three weeks after application
# [5] = foliage application, AAH 80 g/ha, three weeks after application
# [6] = foliage application, 320 g/ha, evaluated three weeks after application
# [7] = 320 g/ha, foliage application after 14-day growth, evaluated three weeks after application
smiles,measurement,setting,value
COc1ccc(-c2sc3ccccc3c2-c2c(O)c(C)nn(C)c2=O)c(OC)n1 [1-079],"herbicidal effect grade, M: velvetleaf",velvetleaf; [3],0 (Herbicidal rate of 5% or less (almost no effect))
same,"herbicidal effect grade, I: wild oat",wild oat; [3],0 (Herbicidal rate of 5% or less (almost no effect))
same,"herbicidal effect grade, L: windgrass",windgrass; [3],0 (Herbicidal rate of 5% or less (almost no effect))
same,"herbicidal effect grade, P: chickweed",chickweed; [3],1 (Herbicidal rate of 5% or more and less than 20%)
same,"herbicidal effect grade, R: persian speedwell",persian speedwell; [3],0 (Herbicidal rate of 5% or less (almost no effect))
same,"herbicidal effect grade, H: barnyard grass",barnyard grass [1]; [3],0 (Herbicidal rate of 5% or less (almost no effect))
same,"herbicidal effect grade, N: redroot pigweed",redroot pigweed; [3],0 (Herbicidal rate of 5% or less (almost no effect))
same,"herbicidal effect grade, J: blackgrass","blackgrass; 320 g/ha, three weeks after application",0 (Herbicidal rate of 5% or less (almost no effect))
same,"herbicidal effect grade, G: green foxtail",green foxtail; [3],0 (Herbicidal rate of 5% or less (almost no effect))
same,"herbicidal effect grade, O: lambsquarters",lambsquarters; [3],0 (Herbicidal rate of 5% or less (almost no effect))
same,"herbicidal effect grade, F: southern crabgrass",southern crabgrass; [3],0 (Herbicidal rate of 5% or less (almost no effect))
same,"herbicidal effect grade, K: Italian ryegrass",Italian ryegrass; [3],0 (Herbicidal rate of 5% or less (almost no effect))
COc1cc(C(F)(F)F)ccc1-c1sc2ccccc2c1-c1c(O)c(C)nn(C)c1=O [1-155],"M: velvetleaf, herbicidal effect",velvetleaf; [4],0 (Herbicidal rate of 5% or less (almost no effect))
same,"I: wild oat, herbicidal effect",wild oat; [4],1 (Herbicidal rate of 5% or more and less than 20%)
same,"L: windgrass, herbicidal effect",windgrass; [4],4 (Herbicidal rate of 70% or more and less than 90%)
same,"P: chickweed, herbicidal effect",chickweed; [4],5 (Herbicidal rate of 90% or more (almost completely withered))
same,"R: persian speedwell, herbicidal effect",persian speedwell; [4],4 (Herbicidal rate of 70% or more and less than 90%)
same,"herbicidal effect on E (rice flat sedge), rating 0-5",rice flat sedge; 320 g/ha,3 (Herbicidal rate of 40% or more and less than 70%)
same,"H: barnyard grass, herbicidal effect",barnyard grass [1]; [4],1 (Herbicidal rate of 5% or more and less than 20%)
same,"N: redroot pigweed, herbicidal effect",redroot pigweed; [4],2 (Herbicidal rate of 20% or more and less than 40%)
same,"herbicidal effect on H (barnyard grass), rating 0-5",barnyard grass [2]; 320 g/ha,3 (Herbicidal rate of 40% or more and less than 70%)
same,"J: blackgrass, herbicidal effect","blackgrass; AAH 320 g/ha, three weeks after application",4 (Herbicidal rate of 70% or more and less than 90%)
same,"G: green foxtail, herbicidal effect",green foxtail; [4],3 (Herbicidal rate of 40% or more and less than 70%)
same,"O: lambsquarters, herbicidal effect",lambsquarters; [4],1 (Herbicidal rate of 5% or more and less than 20%)
same,"F: southern crabgrass, herbicidal effect",southern crabgrass; [4],0 (Herbicidal rate of 5% or less (almost no effect))
same,"K: Italian ryegrass, herbicidal effect",Italian ryegrass; [4],4 (Herbicidal rate of 70% or more and less than 90%)
same,"herbicidal effect on D (Chinese sprangletop), rating 0-5",Chinese sprangletop; 320 g/ha,0 (Herbicidal rate of 5% or less (almost no effect))
CCCC(=O)Oc1c(OC)nn(C)c(=O)c1-c1c(-c2ccc(OC(F)(F)F)cc2)sc2ccccc12 [1-163],"M: velvetleaf, herbicidal effect",velvetleaf; [5],0 (Herbicidal rate of 5% or less (almost no effect))
same,"I: wild oat, herbicidal effect",wild oat; [5],0 (Herbicidal rate of 5% or less (almost no effect))
same,"L: windgrass, herbicidal effect",windgrass; [5],0 (Herbicidal rate of 5% or less (almost no effect))
same,"P: chickweed, herbicidal effect",chickweed; [5],4 (Herbicidal rate of 70% or more and less than 90%)
same,"R: persian speedwell, herbicidal effect",persian speedwell; [5],5 (Herbicidal rate of 90% or more (almost completely withered))
same,"herbicidal effect on E (rice flat sedge), rating 0-5",rice flat sedge; 80 g/ha,0 (Herbicidal rate of 5% or less (almost no effect))
same,"H: barnyard grass, herbicidal effect",barnyard grass [1]; [5],0 (Herbicidal rate of 5% or less (almost no effect))
same,"N: redroot pigweed, herbicidal effect",redroot pigweed; [5],3 (Herbicidal rate of 40% or more and less than 70%)
same,"herbicidal effect on H (barnyard grass), rating 0-5",barnyard grass [2]; 80 g/ha,1 (Herbicidal rate of 5% or more and less than 20%)
same,"J: blackgrass, herbicidal effect","blackgrass; AAH 80 g/ha, three weeks after application",0 (Herbicidal rate of 5% or less (almost no effect))
same,"G: green foxtail, herbicidal effect",green foxtail; [5],0 (Herbicidal rate of 5% or less (almost no effect))
same,"O: lambsquarters, herbicidal effect",lambsquarters; [5],2 (Herbicidal rate of 20% or more and less than 40%)
same,"F: southern crabgrass, herbicidal effect",southern crabgrass; [5],0 (Herbicidal rate of 5% or less (almost no effect))
same,"K: Italian ryegrass, herbicidal effect",Italian ryegrass; [5],0 (Herbicidal rate of 5% or less (almost no effect))
same,"herbicidal effect on D (Chinese sprangletop), rating 0-5",Chinese sprangletop; 80 g/ha,3 (Herbicidal rate of 40% or more and less than 70%)
COC(=O)COc1ccc(-c2sc3ccc(F)cc3c2-c2c(O)c(C)nn(C)c2=O)cc1 [2-070],herbicidal effect on M: velvetleaf,velvetleaf; [6],0 (Herbicidal rate of 5% or less (almost no effect))
same,herbicidal effect on I: wild oat,wild oat; [6],0 (Herbicidal rate of 5% or less (almost no effect))
same,herbicidal effect on L: windgrass,windgrass; [6],0 (Herbicidal rate of 5% or less (almost no effect))
same,herbicidal effect on P: chickweed,chickweed; [6],0 (Herbicidal rate of 5% or less (almost no effect))
same,herbicidal effect on R: persian speedwell,persian speedwell; [6],0 (Herbicidal rate of 5% or less (almost no effect))
same,"herbicidal effect on E (rice flat sedge), rating 0-5",rice flat sedge; 320 g/ha,0 (Herbicidal rate of 5% or less (almost no effect))
same,herbicidal effect on H: barnyard grass,barnyard grass [1]; [6],0 (Herbicidal rate of 5% or less (almost no effect))
same,herbicidal effect on N: redroot pigweed,redroot pigweed; [6],2 (Herbicidal rate of 20% or more and less than 40%)
same,"herbicidal effect on H (barnyard grass), rating 0-5",barnyard grass [2]; 320 g/ha,2 (Herbicidal rate of 20% or more and less than 40%)
same,herbicidal effect on J: blackgrass,"blackgrass; 320 g/ha, evaluated three weeks after application",0 (Herbicidal rate of 5% or less (almost no effect))
same,herbicidal effect on G: green foxtail,green foxtail; [6],0 (Herbicidal rate of 5% or less (almost no effect))
same,herbicidal effect on O: lambsquarters,lambsquarters; [6],0 (Herbicidal rate of 5% or less (almost no effect))
same,herbicidal effect on F: southern crabgrass,southern crabgrass; [6],0 (Herbicidal rate of 5% or less (almost no effect))
same,herbicidal effect on K: Italian ryegrass,Italian ryegrass; [6],0 (Herbicidal rate of 5% or less (almost no effect))
same,"herbicidal effect on D (Chinese sprangletop), rating 0-5",Chinese sprangletop; 320 g/ha,0 (Herbicidal rate of 5% or less (almost no effect))
CCCC(=O)Oc1c(C)nn(C)c(=O)c1-c1c(-c2ccc(OC)c(OC)c2)sc2c(F)cccc12 [4-014],herbicidal effect on M: velvetleaf (evaluation grade 0-5),velvetleaf; [7],3 (Herbicidal rate of 40% or more and less than 70%)
same,herbicidal effect on I: wild oat (evaluation grade 0-5),wild oat; [7],0 (Herbicidal rate of 5% or less (almost no effect))
same,herbicidal effect on L: windgrass (evaluation grade 0-5),windgrass; [7],0 (Herbicidal rate of 5% or less (almost no effect))
same,herbicidal effect on P: chickweed (evaluation grade 0-5),chickweed; [7],5 (Herbicidal rate of 90% or more (almost completely withered))
same,herbicidal effect on R: persian speedwell (evaluation grade 0-5),persian speedwell; [7],3 (Herbicidal rate of 40% or more and less than 70%)
same,herbicidal effect on rice flat sedge (E),rice flat sedge; 320 g/ha,0 (Herbicidal rate of 5% or less (almost no effect))
same,herbicidal effect on H: barnyard grass (evaluation grade 0-5),barnyard grass [1]; [7],2 (Herbicidal rate of 20% or more and less than 40%)
same,herbicidal effect on N: redroot pigweed (evaluation grade 0-5),redroot pigweed; [7],1 (Herbicidal rate of 5% or more and less than 20%)
same,herbicidal effect on barnyard grass (H),barnyard grass [2]; 320 g/ha,3 (Herbicidal rate of 40% or more and less than 70%)
same,herbicidal effect on G: green foxtail (evaluation grade 0-5),green foxtail; [7],4 (Herbicidal rate of 70% or more and less than 90%)
same,herbicidal effect on O: lambsquarters (evaluation grade 0-5),lambsquarters; [7],0 (Herbicidal rate of 5% or less (almost no effect))
same,herbicidal effect on F: southern crabgrass (evaluation grade 0-5),southern crabgrass; [7],0 (Herbicidal rate of 5% or less (almost no effect))
same,herbicidal effect on K: Italian ryegrass (evaluation grade 0-5),Italian ryegrass; [7],1 (Herbicidal rate of 5% or more and less than 20%)
same,herbicidal effect on Chinese sprangletop (D),Chinese sprangletop; 320 g/ha,0 (Herbicidal rate of 5% or less (almost no effect))
